PubChem BioAssay AID248 (DTP/NCI, 2004)
Several values for one entry are separate records, joined by “and”; a condition that tells them apart may be missing. Identical values can stand only once. Inconclusive results and toxic doses are left out. Rule as the data show it: active = T/C of 150% or more; inactive = T/C below 125%. Square brackets hold non-standard residues; d marks the D form. Peptide text beside a SMILES is read from it. ξ: configuration not given here. Ac5c = NC1(C(=O)O)CCCC1; ξS = NC(CO)C(=O)O

System: L1210 leukemia ip in BDF1 mice, survival T/C
Assay: NCI In Vivo Anticancer Drug Screen. Data for tumor model L1210 Leukemia (intraperitoneal) in B6D2F1 (BDF1) mice
Conditions: endpoint: mean survival time, higher = longer survival
Method in brief: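 Transplanted-tumor mice were given test agent; controls received vehicle only. Survival readings from the two groups were divided (treated over control).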

[1] = dose: 100.0 mg/kg/injection, schedule: Q01DX001 (ip), vehicle: saline
[2] = dose: 200.0 mg/kg/injection, schedule: Q01DX001 (ip), vehicle: saline
[3] = dose: 400.0 mg/kg/injection, schedule: Q01DX001 (ip), vehicle: saline
[4] = dose: 100.0 mg/kg/injection, schedule: Q01DX001 (ip), vehicle: carboxymethylcellulose (CMC)
[5] = dose: 200.0 mg/kg/injection, schedule: Q01DX001 (ip), vehicle: carboxymethylcellulose (CMC)
[6] = dose: 400.0 mg/kg/injection, schedule: Q01DX001 (ip), vehicle: carboxymethylcellulose (CMC)
[7] = dose: 50.0 mg/kg/injection, schedule: Q01DX001 (ip), vehicle: saline
[8] = dose: 100.0 mg/kg/injection, schedule: Q01DX009 (ip), vehicle: saline with Tween-80
[9] = dose: 100.0 mg/kg/injection, schedule: Q04DX003 (ip), vehicle: saline with Tween-80
[10] = dose: 200.0 mg/kg/injection, schedule: Q01DX009 (ip), vehicle: saline with Tween-80
[11] = dose: 200.0 mg/kg/injection, schedule: Q04DX003 (ip), vehicle: saline with Tween-80
[12] = dose: 400.0 mg/kg/injection, schedule: Q01DX009 (ip), vehicle: saline with Tween-80
[13] = dose: 400.0 mg/kg/injection, schedule: Q04DX003 (ip), vehicle: saline with Tween-80
[14] = dose: 50.0 mg/kg/injection, schedule: Q01DX009 (ip), vehicle: saline with Tween-80
[15] = dose: 100.0 mg/kg/injection, schedule: Q04DX003 (ip), vehicle: Klucel (hydroxypropylcellulose) (HPC)
[16] = dose: 200.0 mg/kg/injection, schedule: Q04DX003 (ip), vehicle: Klucel (hydroxypropylcellulose) (HPC)
[17] = dose: 400.0 mg/kg/injection, schedule: Q04DX003 (ip), vehicle: Klucel (hydroxypropylcellulose) (HPC)
[18] = dose: 100.0 mg/kg/injection, schedule: Q04DX003 (ip), vehicle: saline
[19] = dose: 200.0 mg/kg/injection, schedule: Q04DX003 (ip), vehicle: saline
[20] = dose: 400.0 mg/kg/injection, schedule: Q04DX003 (ip), vehicle: saline
[21] = dose: 100.0 mg/kg/injection, schedule: Q04DX002 (ip), vehicle: saline with Tween-80
[22] = dose: 200.0 mg/kg/injection, schedule: Q04DX002 (ip), vehicle: saline with Tween-80
[23] = dose: 100.0 mg/kg/injection, schedule: Q01DX009 (ip), vehicle: saline
[24] = dose: 200.0 mg/kg/injection, schedule: Q01DX009 (ip), vehicle: saline

Measured: T/C

NC(CO)C(=O)NC1(C(=O)O)CCCC1 (centres undefined) (H-[ξS]-[Ac5c]-OH)
inactive: [1] 100 % of control | [2] 107 % of control | [3] 107 % of control

CN(C)CCCCN(C)CCCN(C)C
inactive: [1] 114 % of control | [2] 102 % of control | [3] 98 % of control

Nc1cc2c(cc1I)-c1ccccc1C2=O
inactive: [4] 94 % of control | [5] 89 % of control | [6] 97 % of control

CCCCCCCCCCCCCCCCCCNC(=O)N(C)Cc1ccccc1
inactive: dose: 100.0 mg/kg/injection, schedule: Q04DX002 (ip), vehicle: Klucel (hydroxypropylcellulose) (HPC) 99 % of control | dose: 200.0 mg/kg/injection, schedule: Q04DX002 (ip), vehicle: Klucel (hydroxypropylcellulose) (HPC) 96 % of control | dose: 400.0 mg/kg/injection, schedule: Q04DX002 (ip), vehicle: Klucel (hydroxypropylcellulose) (HPC) 96 % of control

CCCCSC(C)(C)CC
inactive: [7] 98 % of control | [1] 93 % of control | [2] 107 % of control | [3] 104 % of control

O=C(Nc1ccc2c(c1)OCO2)O/N=C\c1ccccc1
inactive: [8] 89 % of control | [9] 103 % of control | [10] 91 % of control | [11] 97 % of control | [12] 91 % of control | [13] 89 % of control

Cc1ccc(NC(=O)OCCN(CCOC(=O)Nc2ccc(C)cc2)Cc2ccccc2)cc1
inactive: [1] 94 % of control | [2] 91 % of control | [3] 94 % of control

O=S(=O)(c1ccccc1)c1cccs1
inactive: [14] 101 % of control | [8] 96 % of control | [10] 105 % of control

COc1ccc(/C=C/C(=O)c2cc(O)cc(OC)c2)cc1
inactive: [8] 102 % of control | [9] 100 % of control | [10] 94 % of control | [11] 108 % of control | [12] 94 % of control | [13] 95 % of control

O=C(NC/C(Br)=C/Br)C(F)(F)F
inactive: dose: 100.0 mg/kg/injection, schedule: Q01DX001 (ip), vehicle: Klucel (hydroxypropylcellulose) (HPC) 113 % of control | [15] 90 % of control | dose: 200.0 mg/kg/injection, schedule: Q01DX001 (ip), vehicle: Klucel (hydroxypropylcellulose) (HPC) 105 % of control | [16] 88 % of control | dose: 400.0 mg/kg/injection, schedule: Q01DX001 (ip), vehicle: Klucel (hydroxypropylcellulose) (HPC) 105 % of control | [17] 90 % of control

C(#CCN1CCOCC1)CCCN1CCOCC1
inactive: [18] 96 % of control | [19] 95 % of control | [20] 93 % of control

CC(=O)c1cccc(NC(=O)Oc2ccc(-c3ccccc3)cc2)c1
inactive: dose: 100.0 mg/kg/injection, schedule: Q01DX001 (ip), vehicle: saline with Tween-80 98 % of control | [8] 100 % of control and 90 % of control | [21] 96 % of control and 98 % of control | [9] 90 % of control | dose: 200.0 mg/kg/injection, schedule: Q01DX001 (ip), vehicle: saline with Tween-80 90 % of control | [10] 95 % of control | [22] 93 % of control and 98 % of control | [11] 92 % of control | [12] 90 % of control | dose: 400.0 mg/kg/injection, schedule: Q04DX002 (ip), vehicle: saline with Tween-80 91 % of control | [13] 93 % of control

COC(CNCc1ccccc1)OC
inactive: dose: 75.0 mg/kg/injection, schedule: Q01DX001 (ip), vehicle: steriod suspending solution 101 % of control | dose: 150.0 mg/kg/injection, schedule: Q01DX001 (ip), vehicle: steriod suspending solution 102 % of control

C=C(Cl)CN(CCCC(=O)O)c1cccc(OC)c1
inactive: [8] 89 % of control | dose: 100.0 mg/kg/injection, schedule: Q04DX003 (ip), vehicle: other 100 % of control | [10] 95 % of control | dose: 200.0 mg/kg/injection, schedule: Q04DX003 (ip), vehicle: other 98 % of control | [12] 97 % of control | dose: 400.0 mg/kg/injection, schedule: Q04DX003 (ip), vehicle: other 100 % of control

Cn1c(=O)c2[nH]c(C3CCCCCC3)nc2n(C)c1=O
inactive: [7] 87 % of control | [1] 96 % of control | [2] 87 % of control

COC1OC(CO)C(OS(=O)(=O)c2ccc(C)cc2)C(C(=O)Oc2ccccc2)C1OC(=O)c1ccccc1 (centres undefined)
inactive: dose: 50.0 mg/kg/injection, schedule: Q04DX002 (ip), vehicle: saline with Tween-80 93 % of control | [21] 104 % of control | [22] 90 % of control

Nc1n[n+](=O)c2ccccc2n1O
inactive: dose: 1.17 mg/kg/injection, schedule: Q01DX001 (ip), vehicle: other 95 % of control | dose: 2.34 mg/kg/injection, schedule: Q01DX001 (ip), vehicle: other 101 % of control | dose: 4.69 mg/kg/injection, schedule: Q01DX001 (ip), vehicle: other 102 % of control

NC(=O)C(c1ccccc1)c1ccccc1
inactive: [9] 93 % of control | [11] 100 % of control | [13] 94 % of control

O=S(=O)(O)C(O)C(Cl)(Cl)Cl (centres undefined)
inactive: [1] 103 % of control | [23] 98 % of control | [18] 107 % of control | [2] 101 % of control | [24] 101 % of control | [19] 96 % of control | [3] 98 % of control | dose: 400.0 mg/kg/injection, schedule: Q01DX009 (ip), vehicle: saline 98 % of control | [20] 95 % of control

CCCCCC(C)(O)CC(C)(C)C (centres undefined)
inactive: [4] 92 % of control | [5] 97 % of control | [6] 97 % of control

O=C(NC(=S)Nc1ccc(F)cc1)c1ccccc1F
inactive: dose: 25.0 mg/kg/injection, schedule: Q01DX009 (ip), vehicle: gum acacia 104 % of control | dose: 50.0 mg/kg/injection, schedule: Q01DX009 (ip), vehicle: gum acacia 107 % of control | dose: 100.0 mg/kg/injection, schedule: Q01DX009 (ip), vehicle: gum acacia 96 % of control and 105 % of control

NC(=O)C1CCC1C(N)=O (centres undefined)
inactive: [8] 108 % of control | [10] 101 % of control | [12] 103 % of control

NC(=O)C1(c2ccccc2)CC1
inactive: [23] 100 % of control | [18] 88 % of control | [24] 103 % of control | [19] 93 % of control | [20] 107 % of control

N#CC1c2ccccc2C=CN1C(=O)c1ccccc1 (centres undefined)
inactive: [14] 95 % of control | dose: 100.0 mg/kg/injection, schedule: Q01DX009 (ip), vehicle: Klucel (hydroxypropylcellulose) (HPC) 92 % of control | [15] 94 % of control | [9] 97 % of control | dose: 200.0 mg/kg/injection, schedule: Q01DX009 (ip), vehicle: Klucel (hydroxypropylcellulose) (HPC) 97 % of control | [10] 93 % of control | [16] 98 % of control | [11] 94 % of control | dose: 400.0 mg/kg/injection, schedule: Q01DX009 (ip), vehicle: Klucel (hydroxypropylcellulose) (HPC) 92 % of control | [12] 95 % of control | [17] 94 % of control | [13] 96 % of control
